Assay results taken from patent US5104659A, “Compositions, devices and method for controlling insects” (priority 1984, dated 1992).
Read-outs that look alike come from different tables or passages of the source.

Tests used:
[1] = tested on: Non-resistant strain (house flies); test: Chamber screening evaluation of ear tags, % fly mortality, non-resistant strain; assay type: in vivo; conditions: positive control, petri dish 0.05%, 8640 min
Experimental: (§1) The ear tags are hung in a chamber covered with mesh cloth to keep the flies confined in the 12"×17"×9" space. Each chamber contains a cup of water and a supply of sugar and powdered milk.
(§2) At the start of the test, ~100 three to five day old house flies are placed in each chamber. The chambers are kept in a room with the temperature at 82° F. (27.8° C.). The flies are observed daily (except Saturday and Sunday) and mortality is recorded. At the termination of the study, the chambers are placed in a freezer overnight to kill the remaining flies, which are then counted. The percent mortality is calculated based on the number of flies that die during the observation period and the number of flies counted at the end of the study.

[2] = tested on: Resistant strain (flucythrinate resistant house flies); test: Chamber screening evaluation of ear tags, % fly mortality, resistant strain; assay type: in vivo; conditions: positive control, petri dish 0.05%, 8640 min
Experimental: as §1, §2

[3] = tested on: pyrethroid resistant female flies; assay type: in vivo
[4] = Stability of organophosphates by differential scanning calorimetry (DSC); assay type: physicochemical; conditions: for Onset of Decomposition: DSC; for decomposition points as determined by differential scanning calorimetry: below the 160° C. minimum temperatures encountered during extrusion or injection molding
Experimental: The insect control devices of the present invention containing the insecticide in the coating composition may be prepared at much lower temperatures, as low as about 20° C. The greatly-reduced processing temperatures allow the incorporation of active ingredients which are thermally unstable at elevated temperature. Examples of insecticides which may now be incorporated in such devices are dimethoate, dibrom, and chlorfenvinphos, illustrated in Table I. The decomposition points of these insecticides, as determined by differential scanning calorimetry (DSC), is below the 160° C. minimum temperatures encountered during extrusion or injection molding of plasticized PVC, and as such, these compounds can now be effectively incorporated in the present devices for control insect pests.

[5] = pyrethroid resistant female flies

SMILES | LD50 [3, 5] | Onset of Decomposition [4] [°C] | also measured
CC(C)[C@H](C(=O)OC(C#N)c1cccc(Oc2ccccc2)c1)c1ccc(OC(F)F)cc1 (mixture of isomers) [flucythrinate, (±)-cyano(3-phenoxyphenyl)methyl (+)-4-(difluoromethoxy-α-(1-methyl-ethyl)benzeneacetate] | – | – | % Fly mortality - six days [1]: 77%; % Fly mortality - six days [2]: 4%
Cc1cc(Cl)ccc1N=CN(C)C [Chlordimeform] | > 8.0 Micrograms/pyrethroid resistan | – | –
CCOP(=O)(OCC)OC(=CCl)c1ccc(Cl)cc1Cl [Chlorfenvinphos, 2-Chloro-1-(2,4-dichlorophenyl)-vinyl diethyl phosphate] | 0.1869-0.2626 Micrograms/pyrethroid resistan | 157 | decomposition points as determined by differential scanning calorimetry [4]: < 160 °C
CCOP(=S)(OCC)Oc1nc(Cl)c(Cl)cc1Cl [Chlorpyrifos] | 0.3144-1.486 Micrograms/pyrethroid resistan | – | –
CCOP(=S)(OCC)Oc1cc(C)nc(C(C)C)n1 [Diazinon] | – | – | LD50 ([3]; in vivo): 4.0626-6.2101
COP(=O)(OC)OC(Br)C(Cl)(Cl)Br (centres unmarked) [Dibrom, 1,2-Dibromo-2,2-dichloroethyl dimethyl phosphate] | – | 103 | decomposition points as determined by differential scanning calorimetry [4]: < 160 °C
COP(=S)(OC)Oc1ccc([N+](=O)[O-])cc1Cl [Dicapthon] | 0.2649-0.6539 Micrograms/pyrethroid resistan | – | –
CNC(=O)CSP(=S)(OC)OC [Dimethoate, O,O-dimethyl S-(N-methylcarbamoyl-methyl)phosphorodithioate] | – | 105 | decomposition points as determined by differential scanning calorimetry [4]: < 160 °C
O=S1OCC2C(CO1)C1(Cl)C(Cl)=C(Cl)C2(Cl)C1(Cl)Cl (centres unmarked) [Endosulfan] | 0.3518-0.5009 Micrograms/pyrethroid resistan | – | –
COP(=S)(OC)Oc1ccc(S(=O)(=O)N(C)C)cc1 [Famphur] | – | – | LD50 ([3]; in vivo): 0.1359-8.448
CCOC(=O)CC(SP(=S)(OC)OC)C(=O)OCC (centres unmarked) [Malathion] | 4.4757-6.9321 Micrograms/pyrethroid resistan | – | –
CNC(=O)ON=C(C)SC [Methomyl] | 0.5027-0.6807 Micrograms/pyrethroid resistan | – | –
CCCCOCCOCCOCc1cc2c(cc1CCC)OCO2 [Piperonyl butoxide] | – | – | LD50 ([3]; in vivo): 2.725-3.7726
COP(=S)(OC)Oc1ccc(Sc2ccc(OP(=S)(OC)OC)cc2)cc1 [Temephos] | – | 142 | –
COP(=O)(OC)O/C(=C\Cl)c1cc(Cl)c(Cl)cc1Cl [Tetrachlorvinphos] | – | 190 | –
